Experimental data as given in patent US6607522B1, “Methods for tissue welding using laser-activated protein solders” (General Hospital Corporation, priority 2000, dated 2003).

Key:
[1] = in vitro; cited from earlier work
[2] = tested on: 5 mm incision on equatorial sclera of human cadaveric eyes; assay: Leaking pressure of laser-welded scleral incisions in cadaveric eyes
From the text: Welding Procedure: To measure leaking pressures, an 18-gauge butterfly needle was connected by plastic tubing to a water bottle. The inner pressure in the bottle was controlled by a hand-pumped sphygmomanometer. Nonpreserved cadaveric eyes were defrosted in room-temperature water. The butterfly needle was inserted in the vitreous cavity through equatorial sclera, and the eye was pressurized to 25 to 30 mm Hg. The corneal epithelium was then removed at the wound site, and a caliper set on 5 mm used to make the extent of the incision on equatorial sclera, perpendicular to the limbus. All incisions were placed equidistant from the limbus, and areas of blue or thin sclera were avoided. […] The exact power output of the fiber was measured using a power meter (model 210; Coherent, Palo Alto, Calif.). Argon laser goggles (Glendale Protective Technologies, Lakeland, Fla.) were worn, which allowed viewing of the fluorescence from the Ce6 (emission 670 nm). To set the remaining adhesive on the scleral surface, which surrounded the wound, additional laser was applied until loss of fluorescence of the dye, which took another 30 to 45 seconds.
Leaking Pressure: Leaking pressures were then measured using the sphygmomanometer, which was increasingly pressurized in approximately 10-mm Hg increments. Leaking pressure was recorded the moment the wound leaked air or fluid. […]

| Compound | triplet yield [1] | Mean Leaking Pressure ([2]; argon blue-green laser 488-514 nm, total energy 24-57 J, 60-120 s, mean ± spread) | Mean Leaking Pressure/Total Energy Ratio ([2]; leaking pressure in mm Hg, total energy in joules) |
| --- | --- | --- | --- |
| CC1(C)C(/C=C/C=C/C=C/C=C2\N(CCCCS(=O)(=O)O)c3ccc4ccccc4c3C2(C)C)=[N+](CCCCS(=O)(=O)[O-])c2ccc3ccccc3c21 [indocyanine green] | 0.11 |  |  |
| BSA − Ce6 conjugate: Covalent bovine serum albumin-chlorin e6 conjugate solder; protein 5.2 mM, Ce6 6.2 mM, ratio 0.84 |  | 78.0 ± 11.9 millimeters of mercury | 1.75 ± 0.26 |
